What was measured:
[1] = system: lymphocytes in the peripheral blood; experiment: Variation in number of lymphocytes in peripheral blood in rat; assay type: in vivo; details: male LEW/Crj rats, single oral gavage, suspension in 0.5% MC solution
Protocol: (§1) Male LEW/Crj rats at 3 or 6 weeks old were purchased from Charles River Laboratory Japan Inc. The rats were acclimatized for a week before the start of experiments. The rats were used for the experiments at 3 or 5 rats per one group. A necessary amount of a compound was weighed and suspended in a 0.5% MC solution by using a mortar and a muddler, or a homogenizer. A liquid for administration was prepared so as to be 5 mL per 1 kg body weight. The prepared solution was administered once by oral gavage. […] The blood was immediately put into a vacuum-sealed blood collection tube coated with an anticoagulant (EDTA-2K) (Nipro Corporation) and mixed. The sample was handled under room temperature condition until measurement. The number of the lymphocytes was measured by using an automatic hemacytometer (ADVIA120, Siemens Healthcare Diagnostics K. K.). At the time of blood collection, the thymus gland was also excised.

S1P lyase = target: T1, S1P lyase (Rattus norvegicus, UniProt Q8CHN6); experiment: S1P lyase inhibitory ability in rat (thymus gland extract after oral administration); assay type: in vivo; details: thymus gland extract of orally dosed rats, [3H]dhS1P substrate, 37° C. for 1 hour
T1 construct: The excised thymus gland was crushed; from tissue; host or cells: thymus gland of male LEW/Crj rats (extract supernatant)
T1 sequence (Q8CHN6 1-568): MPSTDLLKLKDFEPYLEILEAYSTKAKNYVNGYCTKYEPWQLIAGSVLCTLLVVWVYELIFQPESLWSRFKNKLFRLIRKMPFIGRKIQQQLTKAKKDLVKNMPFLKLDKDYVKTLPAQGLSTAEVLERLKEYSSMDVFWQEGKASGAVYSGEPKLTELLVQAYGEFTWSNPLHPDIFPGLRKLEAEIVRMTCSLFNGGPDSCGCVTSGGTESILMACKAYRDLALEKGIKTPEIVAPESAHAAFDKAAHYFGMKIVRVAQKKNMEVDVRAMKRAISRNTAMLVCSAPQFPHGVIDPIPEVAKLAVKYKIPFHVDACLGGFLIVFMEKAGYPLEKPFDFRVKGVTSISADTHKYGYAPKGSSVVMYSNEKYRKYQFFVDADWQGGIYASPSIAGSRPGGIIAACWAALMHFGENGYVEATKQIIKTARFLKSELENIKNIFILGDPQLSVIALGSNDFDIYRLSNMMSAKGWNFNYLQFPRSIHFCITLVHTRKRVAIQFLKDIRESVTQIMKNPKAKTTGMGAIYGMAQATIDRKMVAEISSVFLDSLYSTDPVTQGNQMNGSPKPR
Protocol: as §1, with “At the time of blood collection, the thymus gland was also excised.” left out
The excised thymus gland was crushed by either a method including using zirconia beads in the presence of a homogenize buffer (50 mM HEPES-NaOH (pH=7.4), 0.15 M NaCl, 10% Glycerol, 1 mM EDTA, 1 mM DTT and complete protease inhibitor cocktail (Roche, #4693132)) or a method including chopping up the thymus gland and thereafter using a Potter-Elvehjem homogenizer. […] The protein amount in the supernatant was quantified by the Bradford method, and the supernatant was flash-freezed with liquid nitrogen and then stored at −80° C. […]

SMILES	number of lymphocytes in the peripheral blood [1]	S1P lyase activity in the thymus gland (S1P lyase)
O=P(O)(O)OCc1c[nH]c(-c2ccon2)n1 [Example 4, Phosphoric acid mono-(2-isoxazol-3-yl-1H-imidazol-4-ylmethyl) ester and phosphoric acid mono-(2-isoxazol-3-yl-3H-imidazol-4-ylmethyl) ester]	reduced the number of lymphocytes in the peripheral blood	–
CC(=O)c1nc(COP(=O)(O)O)c[nH]1 [Example 1, Phosphoric acid mono-(2-acetyl-1H-imidazol-4-ylmethyl) ester and phosphoric acid mono-(2-acetyl-3H-imidazol-4-ylmethyl) ester]	reduced the number of lymphocytes in the peripheral blood	decreased SIP lyase activity in the thymus gland
CC(=O)c1nc(COP(=O)(O)O)c(C)[nH]1 [Example 2, Phosphoric acid mono-(2-acetyl-5-methyl-1H-imidazol-4-ylmethyl) ester and phosphoric acid mono-(2-acetyl-5-methyl-3H-imidazol-4-ylmethyl) ester]	reduced the number of lymphocytes in the peripheral blood	decreased SIP lyase activity in the thymus gland

From US9120835B2, “Phosphoric acid ester derivatives” (Daiichi Sankyo Company Limited, priority 2011, dated 2015)
